Data: PMC10419174, “WR1065 conjugated to thiol-PEG polymers as novel anticancer prodrugs: broad spectrum efficacy, synergism, and drug resistance reversal” (Frontiers in Oncology, 2023)
Where “and” joins values, the source holds several entries; their conditions need not be identical. Equal values may be shown once. Read-outs that look alike come from different tables or passages of the source.

Key:
[1] = system: Mammary gland MDA-MB-231 cells; experiment: CyQUANT-NF proliferation assay, 48-h drug treatment; assay type: cell-based
Description: Since the BRG prodrugs are composed of WR1065 as one of the major constituents, assays were conducted to determine if factors reported to modulate the activity of amino acid and polyamine plasma membrane transport systems impacted the efficacy of 4SP65 or 1LP65 in selected cancer cell lines. HL60 cells were exposed to 4SP65 with up to 0.5 mM NaCl, MBA-MD-231 cells were tested in the presence and absence of medium supplemented with estradiol plus insulin (in the BulletKit™ for growth supplements for NHMECs), HCC38 cells were exposed to 4SP65 with and without 10 µM insulin added to the growth medium, and multiple cells lines were pretreated for 24 h with 1 mM DFMO prior to starting exposures to 4SP65.
(§1) The percentage of growth inhibition was calculated as follows: […]

Prostate PC3 cells = experiment: cells
Description: as §1

NCI-H1975 NSCLC cells = experiment: cells
Description: as §1

human cancer cell lines = experiment: cells
Description: as §1

Ovary TOV21G cells = experiment: cells
Description: as §1

Ovary SKOV3 cells = experiment: cells
Description: as §1

[2] = Solubility, storage and stability of 4SP65 and 1LP65; assay type: physicochemical
Description: prepared for use and that was not altered by the solvent used, heating up to 37 °C for up to 3 days, and shaking or rocking for up to 3 days at RT or 4°C. For experiment, an aliquot of drug was first mixed in medium, the solvent was removed and saved, and gel pieces were recovered, dried on a vacuum pump, […]
The difference in the starting weight of drug placed into solvent minus the weight of the residue after drying on a vacuum pump was considered to represent the amount of drug that went into solution. The amount of drug that was dissolved at a given time ranged from 40 to 61%, averaging 50.7 ± 8.1% (SD). The weight of the 4SP65 in solution was then used for diluting the drug to concentrations of 200 or 400 µM in supplemented RPMI or DMEM/F12 medium for routine treatment of cells. The dried residue was not used in the in vitro drug efficacy studies. The formation of a gel in the aqueous solvents tested was unexpected since […]
few free thiols in polymer arms of the PEG scaffold for cross-linking reactions to occur. However, unintended topical entanglements between polymer chains of multi-arm PEG-thiol molecules without disulfide formation have been reported (Tang and Bradley 2014 24860800). Aliquots of 4SP65 dissolved in FBS enriched medium has remained stable for >6 months while remnants of the original viscous polymer have maintained stability without any apparent loss of activity when stored for 60 […]
However, the bulk of the product was dissolved at 40 mM in DMSO and stored in aliquots at −80°C for future use once by further dilution in DMSO and then final dilution in medium for treatment of normal human epithelium and human cancer cell lines at working solutions of 4 mM or 400 µM drug. 1LP65 has maintained stability for six months in frozen aliquots but should be stable in DMSO at −80°C for two to three years based upon recommended storage conditions for cystamine dihydrochloride (Selleck Chemical product information), an analogous 225 Da compound with a disulfide bond and amine groups like 1LP65. […]

NCI-H460 NSCLC cells = settings: 48-h treatment, amifostine ND = not definable up to 500 µM
Description: To test anticancer effectiveness of individual drugs or drug combinations, the CyQUANT®-NF proliferation assay was used with a plate reader (i) to generate standard curves for cell numbers for each cell line, (ii) to measure the starting cell numbers at initiation of drug treatment, and (iii) to obtain fluorescence readings from cells in 96-well plates for comparisons to a standard curve for the relevant cancer cell line and quantifying cell viability after drug treatments. […] Trypan blue exclusion was used to estimate cell numbers in a few pilot experiments and thereafter was applied to confirm very low viable cell numbers and cell death.
A series of experiments was conducted to determine the relative efficacy of 4SP65, 1LP65, and amifostine as single agents in the same human cancer cell lines.
Five metrics were calculated and used to characterize the shape of the dose-response curve following exposure to a single test agent. Using cell numbers based on fluorescence measurements and standard curves, the percentage growth was calculated at each drug concentration level. The percentage of growth inhibition was calculated as follows:
where Tz = cell numbers or fluorescence counts at time xero, C = vehicle-exposed control cell numbers at the end of the assessment time period, and Ti = test agent-exposed cell numbers or fluorescence counts at each drug concentration. […] The LC50/99 was calculated using Equation 2 = -50 and Eq. 2 = -99, respectively. […] For NHMECs, the relationships between drug exposure levels and fluorescence units were used to define dose-response metrics. The selectivity index values for individual drugs were calculated using IC50 levels in NHMECs divided by the IC50 value for each cancer cell line. Statistical comparisons of differences in individual dose-response metrics between drug treatments and cell lines were conducted using Student’s t-test, with P-values <0.05 considered significant.
Relative cell growth inhibition values for differing levels of each drug alone and in combination were input into SynergyFinder to generate dose-response curves for each drug alone and to produce a dose-response matrix. The dose-response matrix data then were used in generating a two-dimension heatmap and three-dimension volcano plot to visualize the distribution of areas of differing degrees of synergism and to calculate average and maximum synergy scores in selected human cancer cell lines. The expected drug combination responses were calculated using both the Highest Single Agent (HSA) model and the Zero interaction potency (ZIP) model.

[3] = 48-h treatment, amifostine ND = not definable up to 500 µM
[4] = read-out: LC50, 48-h treatment, amifostine ND = not definable up to 500 µM
[5] = 1LP65: average across 11 cell lines, 48 h
[6] = 15 cell lines for 4SP65, 11 for 1LP65
[7] = average of HCC38, MDA-MB-231, H1975, DU145, PC3
[8] = averages of dose-response metrics across the panel
[9] = averages over 11 cell lines, minimal fold differences

Structure (SMILES): COCCOCCOCCOCCOCCOCCSSCCNCCCN.O=C(O)C(F)(F)F.O=C(O)C(F)(F)F [1LP65, m-PEG6-S-S-WR1065]
- GI50 [1, 3]: 41.8 ± 5.9 µM
- IC50 [1, 3]: 52.4 ± 4.8 µM
- LC99 [1, 3]: 135 ± 6.6 µM
- TGI [1, 3]: 76.4 ± 9.2 µM and 76.4 µM
- CC50 ([1]; 48-h treatment, amifostine ND = not definable up to 500 µM, read-out: LC50 (the source's name)): 110 ± 4.7 µM
- Dose reduction value AMF ÷ 1LP65 ([1]; at GI50): 5.8 fold
- GI50 (Prostate PC3 cells; [3]): 22.9 ± 1.8 µM
- IC50 (Prostate PC3 cells; [3]): 37.5 ± 4.6 µM
- LC99 (Prostate PC3 cells; [3]): 86.3 ± 8.9 µM
- TGI (Prostate PC3 cells; [3]): 40.5 ± 2.8 µM and 40.5 µM
- Dose reduction value AMF ÷ 1LP65 (Prostate PC3 cells; at GI50): 2.3 fold
- Dose reduction value AMF ÷ 1LP65 (Prostate PC3 cells; at IC50): 2.8 fold
- Dose reduction value AMF ÷ 1LP65 (Prostate PC3 cells; at TGI): 7.4 fold
- CC50 (Prostate PC3 cells; [4]): 60 ± 1.1 µM
- GI50 (NCI-H1975 NSCLC cells; [3]): 38.9 ± 2 µM
- IC50 (NCI-H1975 NSCLC cells; [3]): 52.3 ± 4.4 µM
- LC99 (NCI-H1975 NSCLC cells; [3]): 86.8 ± 2.7 µM
- TGI (NCI-H1975 NSCLC cells; [3]): 51.8 ± 4.9 µM
- Dose reduction value AMF ÷ 1LP65 (NCI-H1975 NSCLC cells; at GI50): 3.3 fold
- CC50 (NCI-H1975 NSCLC cells; [4]): 63.3 ± 5.2 µM
- fold greater effect than amifostine (human cancer cell lines): 2.1 fold
- LC99, All cell lines (human cancer cell lines; [5]): 126 ± 15.8 µM
- TGI, All cell lines (human cancer cell lines; [5]): 69.3 ± 10.3 µM
- LC99, range for individual cell lines (human cancer cell lines; [6]): 83.5 to 234 µM
- TGI, range for individual cell lines (human cancer cell lines; [6]): 32.7 to 126 µM
- fold lower concentrations in TP53-mutant compared to TP53 wild-type cell lines (human cancer cell lines; H1437 and TOV21G excluded, across dose-response metrics): ~ 1.8 fold
- LC99, TP53 Wild-Type (human cancer cell lines; average of A549, H460, LNCaP): 161 ± 20.4 µM
- TGI, TP53 Wild-Type (human cancer cell lines; average of A549, H460, LNCaP): 101 ± 20.1 µM
- LC99, TP53 Mutant (human cancer cell lines; [7]): 95.1 ± 9.9 µM
- TGI, TP53 Mutant (human cancer cell lines; [7]): 52.0 ± 7.3 µM
- fold more potent than amifostine as a cytostatic agent, average (human cancer cell lines; [8]): 5.9 fold
- fold more potent than amifostine as a cytostatic agent, range (human cancer cell lines; [8]): 5.0- to 6.4 fold
- Fold difference in drug potency vs amifostine: GI50 (human cancer cell lines; [9]): > 5.0
- Fold difference in drug potency vs amifostine: IC50 (human cancer cell lines; [9]): > 6.4
- Fold difference in drug potency vs amifostine: TGI (human cancer cell lines; [9]): > 6.3
- GI50 (human cancer cell lines; read-out: GI50, All cell lines, 1LP65: average across 11 cell lines, 48 h): 41.2 ± 5.4 µM
- GI50 (human cancer cell lines; read-out: GI50, TP53 Mutant, average of HCC38, MDA-MB-231, H1975, DU145, PC3): 33.3 ± 3.7 µM
- GI50 (human cancer cell lines; read-out: GI50, TP53 Wild-Type, average of A549, H460, LNCaP): 52.7 ± 12.4 µM
- GI50 (human cancer cell lines; read-out: GI50, range for individual cell lines, 15 cell lines for 4SP65, 11 for 1LP65): 21.3 to 77.7 µM
- CC50 (human cancer cell lines; read-out: LC50, All cell lines, 1LP65: average across 11 cell lines, 48 h): 94.6 ± 12.8 µM
- CC50 (human cancer cell lines; read-out: LC50, TP53 Mutant, average of HCC38, MDA-MB-231, H1975, DU145, PC3): 72.9 ± 9.5 µM
- CC50 (human cancer cell lines; read-out: LC50, TP53 Wild-Type, average of A549, H460, LNCaP): 133 ± 19.1 µM
- CC50 (human cancer cell lines; read-out: LC50, range for individual cell lines, 15 cell lines for 4SP65, 11 for 1LP65): 51.3 to 157 µM
- GI50 (human cancer cell lines; read-out: average GI50): 30.4 µM
- GI50 (Ovary TOV21G cells; [3]): 21.3 ± 3.8 µM
- IC50 (Ovary TOV21G cells; [3]): 26.3 ± 3.6 µM
- LC99 (Ovary TOV21G cells; [3]): 92.0 ± 2.8 µM
- TGI (Ovary TOV21G cells; [3]): 32.7 ± 6.2 µM
- Dose reduction value AMF ÷ 1LP65 (Ovary TOV21G cells; at GI50): 2.2 fold
- Dose reduction value AMF ÷ 1LP65 (Ovary TOV21G cells; at IC50): 1.6 fold
- CC50 (Ovary TOV21G cells; [4]): 51.3 ± 12.2 µM
- GI50 (Ovary SKOV3 cells; [3]): 40.9 ± 0.5 µM
- IC50 (Ovary SKOV3 cells; [3]): 45.5 ± 2.5 µM
- LC99 (Ovary SKOV3 cells; [3]): 98.9 ± 8.6 µM
- TGI (Ovary SKOV3 cells; [3]): 50.3 ± 2.0 µM and 50.3 µM
- Dose reduction value AMF ÷ 1LP65 (Ovary SKOV3 cells; at GI50): 2.0 fold
- Dose reduction value AMF ÷ 1LP65 (Ovary SKOV3 cells; at IC50): 6.5 fold
- CC50 (Ovary SKOV3 cells; [4]): 68.8 ± 1.8 µM
- solubility [2]: soluble 100% DMSO or aqueous solution
- time of maintained stability ([2]; frozen aliquots in DMSO at −80°C): six
- GI50 (NCI-H460 NSCLC cells): 77.7 ± 15 µM
- IC50 (NCI-H460 NSCLC cells): 90.1 ± 16.6 µM
- LC99 (NCI-H460 NSCLC cells): 182 ± 6.7 µM
- TGI (NCI-H460 NSCLC cells): 124 ± 13.3 µM and 124 µM
- CC50 (NCI-H460 NSCLC cells; read-out: LC50): 155 ± 5.1 µM
